# Data taken from paper PMC10706865, “Repurposing Study of 4-Acyl-1-phenylaminocarbonyl-2-substituted-piperazine Derivatives as Potential Anticancer Agents—In Vitro Evaluation against Breast Cancer Cells” (International Journal of Molecular Sciences, 2023).
# “And” between values parts separate entries of the source, which are not always exact repeats. Equal values may be shown once. Read-outs that look alike come from different tables or passages of the source.
# How the values were obtained:
# MRC-5 normal lung cells = assay: MTT cell viability assay, MRC-5 normal lung cells; assay type: cell-based, human; conditions: read-out: IC50 (Mean ± SEM; μM) MRC-5 (Normal)
# Method: (§1) Benzofurane scaffold, piperazine ring, and urea function are relevant privileged structures present not only in anticancer drugs against breast cancer but also against other types of cancer, such as lung cancer, hepatocarcinoma, and gastric cancer. […] MRC-5 normal lung cells and A549 lung cancer cells were exposed to compounds 31, 32, 35, 37, and cisplatin (a common drug used to treat lung cancer) for 72 h, and cell viability was measured using the MTT assay (Figure 10 and Table 3). Compounds 35 and 37 also had high selectivity for A549 cancer cells.
# (§2) Exponentially growing cells were seeded into 96-well plates, and drugs were added 24 h later. Each compound was dissolved with DMSO (Panreac Applichem) to prepare a stock solution (100 mM). The working solutions of specific concentrations were prepared via the dilution of the stock solutions in the culture medium and were immediately used to treat the cells. The remaining stock solutions were aliquoted and frozen at −40 °C. We used different aliquots in each independent experiment to avoid the freeze–thaw cycles. Cells were exposed to the drugs for 72 h. After these 72 h, cell viability was determined with the MTT assay or the resazurin assay. These assays are colorimetric techniques that are widely used to determine cell viability.
# (§3) The MTT assay is based on the capability of viable cells to transform the MTT salt into a purple formazan dye. After an incubation period of the cells with the MTT and a solubilization step, the quantity of the colored product is measured with a plate reading spectrophotometer. […] The quantity of formazan produced is presumably proportional to the number of viable cells. After seeding for 24 h, cells were treated with the tested drugs for 72 h. Then, medium was removed, and 125 μL of MTT (1 mg/mL in medium) was added to each well for 3–4 h. Subsequently, 80 μL of 20% sodium dodecyl sulfate (Panreac Applichem) in 20 mM hydrochloric acid (Panreac Applichem) was added to dissolve the insoluble purple formazan product, plates were incubated for 10 h at 37 °C, and optical densities were measured at 540 nm on a multiwell plate spectrophotometer reader.
# (§4) In both assays, cell viability was expressed as percentage in relation to controls. All data were averaged from at least two independent experiments and were expressed as mean ± standard error of the mean (SEM). Selectivity indices (SI) were calculated by dividing the IC50 values in the nonmalignant cells by those in the cancer cells.
# A549 lung cancer cells = assay: MTT cell viability assay, A549 lung cancer cells; assay type: cell-based, human; conditions: for IC50: 72 h exposure, MTT assay, read-out: IC50 (Mean ± SEM; μM) A549 (Cancer); for Selectivity Index: IC50 MRC-5 divided by IC50 A549, 72 h, MTT
# Method: as §1, §2, §3, §4
# [1] = tested on: MCF 10A human normal breast cells; assay: MTT cell viability assay, MCF 10A normal breast cells; assay type: cell-based; conditions: 72 h exposure, read-out: IC50 (Mean ± SEM; μM) MCF 10A (Normal)
# Method: (§5) To evaluate the cytotoxicity of our compounds against cancer cells, they were evaluated in vitro against MCF7 human breast cancer cells. To examine the selectivity of our compounds, they were also studied against MCF 10A human normal cells. Both cell lines were exposed to different concentrations of our compounds for 72 h before measuring cell viability with the 3-(4,5-dimethylthiazol-2-yl)-2,5-diphenyltetrazolium bromide (MTT) assay (for conditions of the MTT assay, see the Experimental Part, Section 3). Docetaxel, an anticancer drug used in clinics, was tested under the same experimental conditions. Data were obtained from at least two independent experiments and were expressed as means ± standard error of means (SEM). The half-maximal inhibitory concentration (IC50) value of each compound was calculated, and the results are collected in Table 2. To evaluate the selective activity of our compounds, the selectivity index (SI) was also calculated. The curves of cell viability of MCF7 cancer cells and MCF 10A normal cells after the treatment with our compounds are shown (Figure 5, Figure 6, Figure 7, Figure 8 and Figure 9 and Figures S1–S4).
# as §2, §3, §4
# HaCaT cells = assay: Resazurin cell viability assay, HaCaT nonmalignant cells; assay type: cell-based; conditions: Homo sapiens; for IC50: 72 h; for CC50: 144 h
# Excerpt: (§6) One key limitation of most anticancer drugs is that they not only target cancer cells but also affect nonmalignant cells with high division rates. This can induce numerous adverse effects, such as severe nausea and vomiting, hair loss, diarrhea, mouth sores, anemia, erythematous eruptions, etc. For example, skin cells, which are constantly renewing themselves, are often damaged by antimetabolites or alkylating agents. This can lead to painful erythematous eruptions. […] These cells are derived from normal adult tissue and have a division rate similar to that of cancer cells. A549 cells and HaCaT cells were exposed to various concentrations of 31, 32, 35, 37, or gemcitabine (a common antimetabolite used to treat cancer) for 72 h. Cell viability was determined with the resazurin assay. Subsequently, the cells were allowed to grow in a drug-free medium for another 72 h. This was performed to test their survival and proliferation ability after the removal of the compounds. Cell viability was again measured with the resazurin assay. […] It should be mentioned that cells exposed to high concentrations of compounds above 100 μM were unable to recover after treatment.
# as §2
# (§7) The resazurin assay measures the ability of viable cells to transform the blue compound resazurin into the pink compound resorufin. There is a direct correlation between the reduction in resazurin and the number of viable cells. After seeding for 24 h, cells were exposed to several concentrations of compounds. After a 72 h treatment period, the cells were washed once with a phosphate-buffered saline (PBS, biowest), and 150 μL of resazurin (20 μg/mL in the medium) was added to each well. The plates were then incubated for 4–5 h at 37 °C, 5% CO2, and optical densities were measured at 540 nm and 620 nm using a multiwell plate spectrophotometer reader (Imark Bio Rad Laboratories Inc., Hercules, CA, USA). Subsequently, cells were washed once with PBS and allowed to grow for an additional 72 h in drug-free medium to allow them to recuperate from possible damage induced by the tested compounds. After the treatment period, cell viability was measured following the same protocol described above.
# as §4
# [2] = tested on: MCF7 human breast cancer cells; assay: MTT cell viability assay, MCF7 breast cancer cells; assay type: cell-based; conditions: for IC50: 72 h exposure, MTT assay, read-out: IC50 (Mean ± SEM; μM) MCF7 (Cancer); for Selectivity Index: IC50 MCF 10A divided by IC50 MCF7, 72 h, MTT
# Method: as §5, §2, §3, §4
# A549 cells = assay: Resazurin cell viability assay, A549 cancer cells; assay type: cell-based, human; conditions: for IC50: Homo sapiens
# Excerpt: as §6, §2, §7, §4
# [3] = Homo sapiens, MRC5, 72 h exposure
# [4] = 72 h Treatment, resazurin assay, read-out: IC50 (Mean ± SEM; μM) HaCaT (Nonmalignant)
# [5] = 72 h Treatment + 72 h Recovery Period, resazurin assay, read-out: IC50 (Mean ± SEM; μM) HaCaT (Nonmalignant)
# [6] = A549, 72 h, 72 h Treatment, resazurin assay, read-out: IC50 (Mean ± SEM; μM) A549 (Cancer)
# [7] = A549, 144 h, 72 h Treatment + 72 h Recovery Period, resazurin assay, read-out: IC50 (Mean ± SEM; μM) A549 (Cancer)
# [8] = IC50 HaCaT divided by IC50 A549, 72 h Treatment, resazurin
# [9] = IC50 HaCaT divided by IC50 A549, 72 h Treatment + 72 h Recovery Period, resazurin
IC50 [2] [µM],"IC50 ([2]; Homo sapiens, MCF7, 72 h) [µM]",IC50 (A549 cells; [6]) [µM],IC50 (A549 cells; [7]) [µM],"IC50 (A549 lung cancer cells; Homo sapiens, A549) [µM]","IC50 (A549 cells; A549, 72 h, gemcitabine line in nM, 72 h Treatment + 72 h Recovery Period, resazurin, read-out: IC50 (Mean ± SEM) A549 (Cancer)) [µM]","IC50 (A549 cells; A549, 72 h, gemcitabine line in nM, 72 h Treatment, resazurin, read-out: IC50 (Mean ± SEM) A549 (Cancer)) [µM]",SMILES,IC50 (MRC-5 normal lung cells; 72 h exposure) [µM],IC50 (A549 lung cancer cells) [µM],Selectivity Index (A549 lung cancer cells),IC50 [1] [µM],IC50 (MRC-5 normal lung cells; [3]) [µM],IC50 (HaCaT cells; [4]) [µM],CC50 (HaCaT cells; [5]) [µM],Selectivity Index [2],Selectivity Index (A549 cells; [8]),Selectivity Index (A549 cells; [9]),"IC50 (HaCaT cells; gemcitabine line in nM, 72 h Treatment + 72 h Recovery Period, resazurin, read-out: IC50 (Mean ± SEM) HaCaT (Nonmalignant)) [µM]","IC50 (HaCaT cells; gemcitabine line in nM, 72 h Treatment, resazurin, read-out: IC50 (Mean ± SEM) HaCaT (Nonmalignant)) [µM]"
,23 ± 3.8,28.4 ± 7.3,69.3 ± 20.2,25.6 ± 2.9,,,O=C(c1cc2ccccc2o1)N1CCN(C(=O)Nc2ccc([N+](=O)[O-])cc2)C(c2ccccc2)C1 (stereo not drawn) [Compound 35],,,6.5 ± 2.1,244 ± 24.9,165 ± 4.1,41.6 ± 8.1,97.5 ± 16.2,11.1 ± 2.9,1.6 ± 0.2,,,
,57.1 ± 34.7,22.5 ± 2.7,41.6 ± 8.9,18.7 ± 2.7,,,N#Cc1ccc(NC(=O)N2CCN(C(=O)c3cc4ccccc4o3)CC2c2ccccc2)cc1 (stereo not drawn) [Compound 37],,,12.8 ± 1.6,484 ± 233,236 ± 5.4,24.8 ± 1.8,64.6 ± 6.8,> 10,1.1 ± 0.1,,,
,,,,,0.0093 ± 0.007,0.0035 ± 0.0008,"Nc1ccn([C@@H]2O[C@H](CO)[C@@H](O)C2(F)F)c(=O)n1 [Gemcitabine, reference compound]",,,,,,,,,3.3 ± 1.4,1.0 ± 0.1,0.0088 ± 0.0065,0.0131 ± 0.0062

# Continued, molecule first:
SMILES,IC50 [2] [µM],"IC50 ([2]; Homo sapiens, MCF7, 72 h) [µM]",IC50 (A549 cells; [6]) [µM],IC50 (A549 cells; [7]) [µM],"IC50 (A549 lung cancer cells; Homo sapiens, A549) [µM]","IC50 (A549 cells; A549, 72 h, gemcitabine line in nM, 72 h Treatment + 72 h Recovery Period, resazurin, read-out: IC50 (Mean ± SEM) A549 (Cancer)) [µM]","IC50 (A549 cells; A549, 72 h, gemcitabine line in nM, 72 h Treatment, resazurin, read-out: IC50 (Mean ± SEM) A549 (Cancer)) [µM]",IC50 (MRC-5 normal lung cells; 72 h exposure) [µM],IC50 (A549 lung cancer cells) [µM],Selectivity Index (A549 lung cancer cells),IC50 [1] [µM],IC50 (MRC-5 normal lung cells; [3]) [µM],IC50 (HaCaT cells; [4]) [µM],CC50 (HaCaT cells; [5]) [µM],Selectivity Index [2],Selectivity Index (A549 cells; [8]),Selectivity Index (A549 cells; [9]),"IC50 (HaCaT cells; gemcitabine line in nM, 72 h Treatment + 72 h Recovery Period, resazurin, read-out: IC50 (Mean ± SEM) HaCaT (Nonmalignant)) [µM]","IC50 (HaCaT cells; gemcitabine line in nM, 72 h Treatment, resazurin, read-out: IC50 (Mean ± SEM) HaCaT (Nonmalignant)) [µM]"
"N.N.[Cl][Pt][Cl] [Cisplatin, reference compound]",,,,,,,,31.8 ± 5.6,8.2 ± 2.2,6.3 ± 1.8,,,,,,,,,
CC(C)(C)OC(=O)N1CCN(C(=O)Nc2cc(C(F)(F)F)ccc2Cl)C(c2ccccc2)C1 (stereo not drawn) [Compound 31],18.6 ± 4.2,< 20,17 ± 1.6,17.8 ± 2,4.8 ± 0.8,,,,,2.1 ± 0.3,298 ± 56.4,14.2 ± 0.5,14.5 ± 3.2,30.9 ± 7.5,> 10 and 16.6 ± 1.9,0.8 ± 0.2,,,
CC(C)(C)OC(=O)N1CCN(C(=O)Nc2ccc(Cl)c(C(F)(F)F)c2)C(c2ccccc2)C1 (stereo not drawn) [Compound 32],,,6.2 ± 0.6,13.6 ± 0.1,5.2 ± 0.4,,,,,1.0 ± 0.1,34.1 ± 2.2,4.3 ± 0.2,6.7 ± 0.8,14.9 ± 1.3,12.6 ± 2.6,1.1 ± 0.1,1.1 ± 0.1,,
